Test system: tissue
Experiment: Local tissue toxicity of glutaraldehyde by concentration
Format: in vivo
Conditions: below this level limited local toxicity

**Q.** How did the “concentration that produces significant tissue necrosis” value turn out when `O=CCCCC=O` [glutaraldehyde] was run?
**A.** ≥ 0.75%
